Patent US11299760B2 (Amgen Inc., priority 2013, dated 2022)

How the values were obtained:
[1] = tested on: production cell lines (MAb A, MAb B, MAb C, MAb D); experiment: mock perfusion assay, glycan analysis, all four production cell lines; type: cell-based, Chinese hamster
Procedure: Mock perfusion assay is a small scale, plate-based assay that is designed to mimic perfusion conditions in bioreactors through daily medium exchanges. For a 10-day mock perfusion assay, passaging cultures of various production cell lines were diluted 1:5 into chemically defined base perfusion medium in a 24 deep-well plate at a final volume of 3 ml per well. Mock perfusion was initiated on day 3 when the cells were spun down at 1000 rpm for 5 minutes and 25% of each spent culture medium was exchanged with the equivalent volume of fresh perfusion media. Subsequent medium exchange percentages were 40% on days 4-8 and 50% on day 9. Exchanged supernatants were stored at 4° C. prior to analysis.
Analysis of cell culture parameters was also started on day 3; viable cell density and viability were analyzed using the ViaCount Guava assay as previously described. Glucose was measured daily starting on day 3 and was maintained at 12 g/l. Stored supernatants were analyzed for antibody titer as described previously. Samples of supernatant fluid from days 6, 8 and 10 were also analyzed for the presence and type of glycans by HILIC analysis.
The cell lines used included three production cell lines that are known to generate mAbs with low high mannose glycans (MAb A, MAb B and MAb C) and one production cell line that consistently produces product with high levels of high mannose glycans (MAb D). […]

[2] = tested on: recombinant CHO cell line producing an antibody (MAb A); experiment: six day batch assay, glycan analysis (HILIC); type: cell-based, Chinese hamster; design: Total HM: unit not given here; settings: for Man5 / Man6 / Man7 / Man8a / Man8b / Total HM: day 6
Procedure: Cells were centrifuged at 1500 rpm for five minutes and seeded at 2×10^6 cells per ml into batch production medium in a 24 deep-well plate at a final volume of 3 ml.
Cell density and viability were measured by Guava easyCyte flow cytometer (Milipore, Billerica, Mass.) with the ViaCount application. Cultures were spun down, supernatants were filtered on 0.4 micron filters, and were analyzed for titer and glycan distribution.
For glycan analysis, Peptide-N-Glycosidase F (PNGAse F)—released N-linked glycans from protein A purified antibodies were labeled with 2-aminobenzoic acid (2-AA) and separated by HILIC (hydrophilic interaction liquid chromatography) in-line with a fluorescence detector. The separation was performed using a Waters Acquity UPLC (Waters, Milford, Mass.). In-line mass spectrometry (MS), using an ion trap mass spectrometer (LTQ; Thermo Scientific, Waltham, Mass.) in positive mode, was incorporated to accommodate mass determination of species. Glycans were injected and bound to the column in high organic conditions and were then eluted with an increasing gradient of an aqueous ammonium formate buffer. Fast separation times were achieved using a […] small particle column format (Acquity UPLC BEH Glycan Column, 2.1×100 mm; Waters, Milford, Mass.).

For `CC[C@@]1([C@@H]2O[C@@H]([C@H]3O[C@@](O)(CO)[C@H](C)C[C@@H]3C)C[C@@H]2C)CC[C@H]([C@]2(C)CC[C@]3(C[C@H](O)[C@@H](C)[C@@H]([C@@H](C)[C@@H](OC)[C@H](C)C(=O)O)O3)O2)O1` [monensin], the “effect on high mannose glycans” value ([1]; all four antibody products, mock perfusion) was “increased high mannose glycans on all four antibody products tested in a dose dependent manner”, the “increase of high mannose levels compared to the control samples” value ([1]; antibodies collected on day 10, depending on the monensin dose) was 1.5 to 15 fold and the Man5 ([2]; 0.1 nM monensin added day 1) was 0.775%. The Man6 ([2]; 0.1 nM monensin added day 1) was 0.09%, the Man7 ([2]; 0.1 nM monensin added day 1) was 0% and the Man8a ([2]; 0.1 nM monensin added day 1) was 0.31%. The Man8b ([2]; 0.1 nM monensin added day 1) was 0%, the “Total HM” value ([2]; 0.1 nM monensin added day 1) was 0.8 and the Man5 ([2]; 0.5 nM monensin added day 1) was 0.785%. It also gave a Man6 ([2]; 0.5 nM monensin added day 1) of 0.07%, a Man7 ([2]; 0.5 nM monensin added day 1) of 0% and a Man8a ([2]; 0.5 nM monensin added day 1) of 0.3%. The Man8b ([2]; 0.5 nM monensin added day 1) was 0%, the “Total HM” value ([2]; 0.5 nM monensin added day 1) was 0.85 and the Man5 ([2]; 1 nM monensin added day 1) was 0.89%. It also gave a Man6 ([2]; 1 nM monensin added day 1) of 0.13%, a Man7 ([2]; 1 nM monensin added day 1) of 0.04% and a Man8a ([2]; 1 nM monensin added day 1) of 0.29%. For the same compound, the Man8b ([2]; 1 nM monensin added day 1) was 0%, the “Total HM” value ([2]; 1 nM monensin added day 1) was 1.05 and the Man5 ([2]; 5 nM monensin added day 1) was 1.12%. The Man6 ([2]; 5 nM monensin added day 1) was 0.18%, the Man7 ([2]; 5 nM monensin added day 1) was 0.27% and the Man8a ([2]; 5 nM monensin added day 1) was 0.37%. The Man8b ([2]; 5 nM monensin added day 1) was 0%, the “Total HM” value ([2]; 5 nM monensin added day 1) was 1.35 and the Man5 ([2]; 10 nM monensin added day 1) was 1.485%. It also gave a Man6 ([2]; 10 nM monensin added day 1) of 0.16%, a Man7 ([2]; 10 nM monensin added day 1) of 0% and a Man8a ([2]; 10 nM monensin added day 1) of 0.315%. For the same compound, the Man8b ([2]; 10 nM monensin added day 1) was 0%, the “Total HM” value ([2]; 10 nM monensin added day 1) was 1.6 and the “increase of total high mannose glycans on the recombinant antibody” value ([2]; 25 nM bolus on day 0 or 200 nM or 100 nM bolus on day 3) was 6 to 30 fold. The Man5 ([2]; 25 nM monensin added day 1) was 6.43%, the Man6 ([2]; 25 nM monensin added day 1) was 0.59% and the Man7 ([2]; 25 nM monensin added day 1) was 0.59%. For the same compound, the Man8a ([2]; 25 nM monensin added day 1) was 0.39%, the Man8b ([2]; 25 nM monensin added day 1) was 0.115% and the “Total HM” value ([2]; 25 nM monensin added day 1) was 7.65. For the same compound, the “effect on high mannose and on cell growth, viability and titer” value ([2]; 50 nM incubated for six days and 500 nM incubated for three days) was “large increases in high mannose at the expense of cell growth, viability and titer”, the Man5 ([2]; 50 nM monensin added day 1) was 15.725% and the Man6 ([2]; 50 nM monensin added day 1) was 4.64%. It also gave a Man7 ([2]; 50 nM monensin added day 1) of 4.73%, a Man8a ([2]; 50 nM monensin added day 1) of 0.8% and a Man8b ([2]; 50 nM monensin added day 1) of 2.02%. The “Total HM” value ([2]; 50 nM monensin added day 1) was 25.1, the Man5 ([2]; 100 nM monensin added day 3) was 19.365% and the Man6 ([2]; 100 nM monensin added day 3) was 7.475%. The Man7 ([2]; 100 nM monensin added day 3) was 6.795%, the Man8a ([2]; 100 nM monensin added day 3) was 0.8% and the Man8b ([2]; 100 nM monensin added day 3) was 2.635%. The “Total HM” value ([2]; 100 nM monensin added day 3) was 33.65, the Man5 ([2]; 200 nM monensin added day 3) was 18.585% and the Man6 ([2]; 200 nM monensin added day 3) was 4.975%. It also gave a Man7 ([2]; 200 nM monensin added day 3) of 3.795%, a Man8a ([2]; 200 nM monensin added day 3) of 0.61% and a Man8b ([2]; 200 nM monensin added day 3) of 1.17%. The “Total HM” value ([2]; 200 nM monensin added day 3) was 27.35, the Man5 ([2]; 500 nM monensin added day 3) was 11.735% and the Man6 ([2]; 500 nM monensin added day 3) was 1.545%. The Man7 ([2]; 500 nM monensin added day 3) was 1.045%, the Man8a ([2]; 500 nM monensin added day 3) was 0.355% and the Man8b ([2]; 500 nM monensin added day 3) was 0.2%. The “Total HM” value ([2]; 500 nM monensin added day 3) was 14.3 and the “impact on high mannose or cell culture parameters” value ([2]; monensin concentrations between 0.1 to 10 nM) was “no impacts on high mannose or cell culture parameters”.
